Data as given in US8791264B2 (Purdue Pharma L.P., priority 2006, dated 2014).

Assays:
[1] = target: T1, recombinant rat L-type calcium channel (LTCC) subunits (α1c, α2δ, and β1) (Rattus norvegicus, UniProt P22002); assay: FLIPR calcium mobilization assay for L-type calcium channel; assay type: cell-based; details: calcium mobilization in vitro assay; HEK293 cells expressing rat LTCC
T1 construct: expressed in transfected cells
In short: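 HEK293 cells stably expressing rat LTCC (α1c, α2δ, β1), Fluo-4 loaded in pH 7.4 buffer with 5 mM CaCl2. Compound (about 846 pM to 17 μM final) applied 5 minutes before depolarization with 90 mM KCl final; FLIPR fluorescence recorded throughout.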

[2] = target: T2, N-type calcium channel (NTCC) (Homo sapiens, UniProt Q00975); assay: FLIPR calcium mobilization assay for N-type calcium channel; assay type: cell-based; details: calcium mobilization in vitro assay; differentiated IMR32 cells
T2 construct: host or cells: IMR32 cells differentiated with dibutyryl cAMP and bromodeoxyuridine
In short: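 Differentiated IMR32 cells (8 days, dibutyryl cAMP and BrdU) loaded with 3 μM Fluo-4 during 90 mM KCl pre-stimulation, with compound at about 846 pM to 17 μM plus 5 μM nitrendipine. After washes in compound, FLIPR read basal fluorescence 315 s, then 45 s after KCl addition (final 90 mM).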

T2 sequence (Q00975 whole entry): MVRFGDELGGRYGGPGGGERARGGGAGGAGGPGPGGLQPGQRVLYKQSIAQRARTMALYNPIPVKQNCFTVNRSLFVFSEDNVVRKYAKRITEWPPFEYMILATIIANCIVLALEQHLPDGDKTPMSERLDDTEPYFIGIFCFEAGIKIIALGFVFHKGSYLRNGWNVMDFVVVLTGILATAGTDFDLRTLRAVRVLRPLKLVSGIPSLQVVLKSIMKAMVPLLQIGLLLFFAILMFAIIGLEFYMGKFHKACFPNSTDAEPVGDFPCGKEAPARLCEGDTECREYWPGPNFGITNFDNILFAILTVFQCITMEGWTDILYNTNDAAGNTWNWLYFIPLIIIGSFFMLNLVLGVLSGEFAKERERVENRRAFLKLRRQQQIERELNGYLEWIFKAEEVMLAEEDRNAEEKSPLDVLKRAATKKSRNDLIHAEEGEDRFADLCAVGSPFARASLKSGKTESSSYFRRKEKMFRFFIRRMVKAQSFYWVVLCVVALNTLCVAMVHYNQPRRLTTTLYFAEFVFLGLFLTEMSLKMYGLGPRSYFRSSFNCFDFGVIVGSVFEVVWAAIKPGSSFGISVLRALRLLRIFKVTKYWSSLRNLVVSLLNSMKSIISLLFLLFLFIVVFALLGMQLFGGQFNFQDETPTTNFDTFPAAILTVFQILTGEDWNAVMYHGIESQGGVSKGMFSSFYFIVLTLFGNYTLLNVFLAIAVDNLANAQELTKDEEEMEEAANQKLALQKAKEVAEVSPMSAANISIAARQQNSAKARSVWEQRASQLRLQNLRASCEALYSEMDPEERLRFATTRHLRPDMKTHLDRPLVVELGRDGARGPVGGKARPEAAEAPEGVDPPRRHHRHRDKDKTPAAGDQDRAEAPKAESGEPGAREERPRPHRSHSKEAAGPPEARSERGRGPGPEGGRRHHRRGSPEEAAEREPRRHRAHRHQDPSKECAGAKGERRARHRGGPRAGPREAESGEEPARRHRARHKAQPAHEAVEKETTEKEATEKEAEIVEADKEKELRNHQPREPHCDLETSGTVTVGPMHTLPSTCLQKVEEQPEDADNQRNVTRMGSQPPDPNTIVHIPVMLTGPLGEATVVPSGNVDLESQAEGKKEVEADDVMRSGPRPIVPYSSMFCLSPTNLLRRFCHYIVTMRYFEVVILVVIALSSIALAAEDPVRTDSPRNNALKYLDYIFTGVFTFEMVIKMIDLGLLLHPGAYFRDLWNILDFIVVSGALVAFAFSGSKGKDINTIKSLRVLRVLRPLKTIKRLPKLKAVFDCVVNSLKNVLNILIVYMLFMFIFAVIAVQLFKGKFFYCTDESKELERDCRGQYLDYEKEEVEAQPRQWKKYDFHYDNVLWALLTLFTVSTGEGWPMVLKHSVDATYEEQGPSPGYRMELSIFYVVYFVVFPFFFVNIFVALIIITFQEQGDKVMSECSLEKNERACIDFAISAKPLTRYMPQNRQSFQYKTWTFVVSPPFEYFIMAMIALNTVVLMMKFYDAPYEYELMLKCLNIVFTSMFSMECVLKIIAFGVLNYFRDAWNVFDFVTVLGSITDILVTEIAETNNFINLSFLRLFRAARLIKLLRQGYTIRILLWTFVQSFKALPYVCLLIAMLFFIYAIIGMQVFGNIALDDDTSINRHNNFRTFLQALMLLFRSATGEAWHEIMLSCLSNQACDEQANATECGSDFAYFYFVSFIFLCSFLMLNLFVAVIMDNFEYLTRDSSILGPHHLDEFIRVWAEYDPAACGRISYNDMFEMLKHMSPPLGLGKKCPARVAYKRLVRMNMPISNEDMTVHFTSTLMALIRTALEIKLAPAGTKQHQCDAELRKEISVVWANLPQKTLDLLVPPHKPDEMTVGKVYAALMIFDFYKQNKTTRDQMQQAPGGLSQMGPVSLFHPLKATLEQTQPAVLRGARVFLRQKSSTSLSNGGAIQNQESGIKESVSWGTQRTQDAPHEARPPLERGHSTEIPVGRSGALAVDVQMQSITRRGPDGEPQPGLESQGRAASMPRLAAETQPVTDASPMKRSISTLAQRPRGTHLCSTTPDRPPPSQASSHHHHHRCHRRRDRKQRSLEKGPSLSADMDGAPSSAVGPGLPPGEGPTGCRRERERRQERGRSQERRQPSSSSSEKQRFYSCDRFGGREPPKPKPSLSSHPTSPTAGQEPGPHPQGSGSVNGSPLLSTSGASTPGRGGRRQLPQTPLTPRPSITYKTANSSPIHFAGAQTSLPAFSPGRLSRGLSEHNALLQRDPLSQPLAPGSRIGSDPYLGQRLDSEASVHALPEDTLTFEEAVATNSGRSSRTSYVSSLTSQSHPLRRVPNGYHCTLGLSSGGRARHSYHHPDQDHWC
T2 sequence (P54289 25-956 partner limits assumed): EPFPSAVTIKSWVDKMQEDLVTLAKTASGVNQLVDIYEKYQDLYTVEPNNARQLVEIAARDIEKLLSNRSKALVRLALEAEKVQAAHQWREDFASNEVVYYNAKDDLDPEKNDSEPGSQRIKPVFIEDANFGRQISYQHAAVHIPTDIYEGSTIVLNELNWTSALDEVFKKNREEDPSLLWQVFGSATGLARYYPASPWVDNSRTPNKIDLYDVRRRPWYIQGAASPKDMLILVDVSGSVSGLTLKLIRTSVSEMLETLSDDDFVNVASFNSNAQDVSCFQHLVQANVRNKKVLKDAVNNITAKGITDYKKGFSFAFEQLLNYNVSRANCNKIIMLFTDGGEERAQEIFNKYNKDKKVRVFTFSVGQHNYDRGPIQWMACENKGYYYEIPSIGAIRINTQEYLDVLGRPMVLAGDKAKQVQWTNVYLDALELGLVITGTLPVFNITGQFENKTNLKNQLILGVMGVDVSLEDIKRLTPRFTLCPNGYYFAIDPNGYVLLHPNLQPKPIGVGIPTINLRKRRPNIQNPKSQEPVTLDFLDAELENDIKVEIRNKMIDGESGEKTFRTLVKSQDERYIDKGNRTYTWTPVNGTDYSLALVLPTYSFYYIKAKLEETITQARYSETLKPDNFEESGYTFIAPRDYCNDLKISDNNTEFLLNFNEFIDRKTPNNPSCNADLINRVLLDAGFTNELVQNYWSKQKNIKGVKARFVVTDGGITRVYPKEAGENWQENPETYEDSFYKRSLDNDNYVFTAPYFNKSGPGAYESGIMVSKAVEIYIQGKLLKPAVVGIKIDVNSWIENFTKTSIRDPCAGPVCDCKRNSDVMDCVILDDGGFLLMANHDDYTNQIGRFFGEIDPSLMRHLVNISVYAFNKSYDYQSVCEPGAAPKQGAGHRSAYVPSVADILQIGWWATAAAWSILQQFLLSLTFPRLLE
T2 sequence (P54289 957-1103 partner limits assumed): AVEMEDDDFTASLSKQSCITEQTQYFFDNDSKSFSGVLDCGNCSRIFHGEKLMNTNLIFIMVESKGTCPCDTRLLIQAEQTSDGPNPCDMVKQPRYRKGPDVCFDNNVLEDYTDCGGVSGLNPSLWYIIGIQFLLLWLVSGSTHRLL
T2 sequence (P54284 whole entry partner): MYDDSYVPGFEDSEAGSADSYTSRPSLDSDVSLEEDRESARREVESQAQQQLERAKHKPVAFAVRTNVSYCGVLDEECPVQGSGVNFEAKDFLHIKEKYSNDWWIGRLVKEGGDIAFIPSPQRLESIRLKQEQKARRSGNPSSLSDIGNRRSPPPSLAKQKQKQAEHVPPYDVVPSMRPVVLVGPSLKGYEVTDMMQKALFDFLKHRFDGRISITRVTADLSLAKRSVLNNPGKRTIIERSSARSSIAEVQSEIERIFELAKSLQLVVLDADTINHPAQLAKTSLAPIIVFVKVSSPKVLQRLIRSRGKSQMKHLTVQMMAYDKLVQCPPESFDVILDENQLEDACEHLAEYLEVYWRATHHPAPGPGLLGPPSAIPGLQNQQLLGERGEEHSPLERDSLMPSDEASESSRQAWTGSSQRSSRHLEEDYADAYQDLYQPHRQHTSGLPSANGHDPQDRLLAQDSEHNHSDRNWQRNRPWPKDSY

| IC50 [1] [nM] | IC50 [2] [nM] | Compound |
| --- | --- | --- |
| > 20000 | 220 | CC(C)N(C1CCN(C(=O)CNCC2CCCCC2)CC1)S(=O)(=O)c1cccc(C(F)(F)F)c1 [Compound 102, N-{1-[2-(Cyclohexylmethylamino)acetyl]-piperidin-4-yl}-N-isopropyl-3-trifluoromethylbenzenesulfonamide] |
| 7730 | 700 | CC(C)N(C1CCN(C(=O)CN(CCO)Cc2ccccc2)CC1)S(=O)(=O)c1cccc(C(F)(F)F)c1 [Compound 103, N-(1-{2-[Benzyl-(2-hydroxyethyl)-amino]acetyl}-piperidin-4-yl)-N-isopropyl-3-trifluoromethylbenzenesulfonamide] |
| 9750 | 570 | CC(C)N(C1CCN(CCC(=O)Nc2ccc(F)cc2)CC1)S(=O)(=O)c1cccc(C(F)(F)F)c1 [Compound 107a, N-(4-Fluorophenyl)-3-{4-[isopropyl-(3-trifluoromethylbenzenesulfonyl)amino]-piperidin-1-yl}-propionamide] |
| > 20000 | 670 | COc1ccccc1NC(=O)CCN1CCC(N(C(C)C)S(=O)(=O)c2cccc(C(F)(F)F)c2)CC1 [Compound 107b, 3-{4-[Isopropyl-(3-trifluoromethylbenzenesulfonyl)amino]-piperidin-1-yl}-N-(2-methoxyphenyl)-propionamide] |
| 7430 | 790 | CC(C)N(C1CCN(C(=O)[C@H](Cc2ccccc2)NCC(N)=O)CC1)S(=O)(=O)c1cccc(C(F)(F)F)c1 [Compound 109, (S)-2-(1-Benzyl-2-{4-[isopropyl(3-trifluoromethylbenzene-sulfonyl)amino]-piperidin-1-yl}-2-oxo-ethylamino)-acetamide] |
| > 20000 | 2320 | O=C(Nc1cc(C(F)(F)F)cc(C(F)(F)F)c1)N1CCC(N(C2CC2)S(=O)(=O)c2cccc(C(F)(F)F)c2)CC1 [Compound 111, 4-[Cyclopropyl-(3-trifluoromethylbenzenesulfonyl)amino]-piperidine-1-carboxylic acid (3,5-bis-trifluoromethylphenyl)-amide] |
| > 20000 | 640 | CN(C1CCN(C(=O)Nc2cc(C(F)(F)F)cc(C(F)(F)F)c2)CC1)S(=O)(=O)c1ccccc1 [Compound 112, (4-Benzenesulfonyl-methyl-amino)-piperidine-1-carboxylic acid (3,5-bis-trifluoromethylphenyl)-amide] |
| 5490 | 950 | CC(C)CC(O)C(=O)N1CCC(N(C(C)C)S(=O)(=O)c2cccc(C(F)(F)F)c2)CC1 (centres unmarked) [N-[1-(2-hydroxy-4-methyl-pentanoyl)-piperidin-4-yl]-N-isopropyl-3-trifluoromethyl-benzenesulfonamide] |
| 5280 | 430 | Cc1ccccc1NCCC(=O)N1CCC(N(C(C)C)S(=O)(=O)c2cccc(C(F)(F)F)c2)CC1 [N-isopropyl-N-[1-(3-o-tolylamino-propionyl)-piperidin-4-yl]-3-trifluoromethyl-benzenesulfonamide] |
| 3800 | 370 | COc1ccccc1NCCC(=O)N1CCC(N(C(C)C)S(=O)(=O)c2cccc(C(F)(F)F)c2)CC1 [N-isopropyl-N-{1-[3-(2-methoxy-phenylamino)-propionyl]-piperidin-4-yl}-3-trifluoromethyl-benzenesulfonamide] |
| > 20000 | 330 | CC(C)N(C1CCN(C(=O)CCNc2ccccc2OC(F)(F)F)CC1)S(=O)(=O)c1cccc(C(F)(F)F)c1 [N-isopropyl-N-{1-[3-(2-trifluoromethoxy-phenylamino)-propionyl]-piperidin-4-yl}-3-trifluoromethyl-benzenesulfonamide] |
| 10000 to 20000 | 420 | COc1cccc(NCCC(=O)N2CCC(N(C(C)C)S(=O)(=O)c3cccc(C(F)(F)F)c3)CC2)c1 [N-isopropyl-N-{1-[3-(3-methoxy-phenylamino)-propionyl]-piperidin-4-yl}-3-trifluoromethyl-benzenesulfonamide] |
| > 20000 | 770 | CC(C)N(C1CCN(C(=O)CCNc2cccc(OC(F)(F)F)c2)CC1)S(=O)(=O)c1cccc(C(F)(F)F)c1 [N-isopropyl-N-{1-[3-(3-trifluoromethoxy-phenylamino)-propionyl]-piperidin-4-yl}-3-trifluoromethyl-benzenesulfonamide] |
| 4300 | 320 | COc1ccc(CNCCC(=O)N2CCC(N(C(C)C)S(=O)(=O)c3cccc(C(F)(F)F)c3)CC2)cc1 [N-isopropyl-N-{1-[3-(4-methoxy-benzylamino)-propionyl]-piperidin-4-yl}-3-trifluoromethyl-benzenesulfonamide] |
| 2380 | 710 | CC(C)N(C1CCN(C(=O)C(N)Cc2ccc(OCc3ccccc3)cc2)CC1)S(=O)(=O)c1cccc(C(F)(F)F)c1 (centres unmarked) [N-{1-[2-amino-3-(4-benzyloxy-phenyl)-propionyl]-piperidin-4-yl}-N-isopropyl-3-trifluoromethyl-benzenesulfonamide] |
| 10000 to 20000 | 310 | COc1cccc(NCCC(=O)N2CCC(N(C(C)C)S(=O)(=O)c3cccc(C(F)(F)F)c3)CC2)c1OC [N-{1-[3-(2,3-dimethoxy-phenylamino)-propionyl]-piperidin-4-yl}-N-isopropyl-3-trifluoromethyl-benzenesulfonamide] |
| > 20000 | 830 | CC(C)N(C1CCN(C(=O)CCNc2ccc(F)cc2F)CC1)S(=O)(=O)c1cccc(C(F)(F)F)c1 [N-{1-[3-(2,4-difluoro-phenylamino)-propionyl]-piperidin-4-yl}-N-isopropyl-3-trifluoromethyl-benzenesulfonamide] |
| > 20000 | 750 | COc1ccc(OC)c(NCCC(=O)N2CCC(N(C(C)C)S(=O)(=O)c3cccc(C(F)(F)F)c3)CC2)c1 [N-{1-[3-(2,5-dimethoxy-phenylamino)-propionyl]-piperidin-4-yl}-N-isopropyl-3-trifluoromethyl-benzenesulfonamide] |
| > 20000 | 460 | Cc1cccc(C)c1NCCC(=O)N1CCC(N(C(C)C)S(=O)(=O)c2cccc(C(F)(F)F)c2)CC1 [N-{1-[3-(2,6-dimethyl-phenylamino)-propionyl]-piperidin-4-yl}-N-isopropyl-3-trifluoromethyl-benzenesulfonamide] |
| 4480 | 220 | CC(C)CC(CC(=O)N1CCC(N(C(C)C)S(=O)(=O)c2cccc(C(F)(F)F)c2)CC1)NCCOCc1ccccc1 (centres unmarked) [N-{1-[3-(2-benzyloxy-ethylamino)-5-methyl-hexanoyl]-piperidin-4-yl}-N-isopropyl-3-trifluoromethyl-benzenesulfonamide] |
| > 20000 | 820 | CC(C)N(C1CCN(C(=O)CCNc2ccc(F)cc2Cl)CC1)S(=O)(=O)c1cccc(C(F)(F)F)c1 [N-{1-[3-(2-chloro-4-fluoro-phenylamino)-propionyl]-piperidin-4-yl}-N-isopropyl-3-trifluoromethyl-benzenesulfonamide] |
| 9650 | 550 | CC(C)N(C1CCN(C(=O)CCNc2ccccc2F)CC1)S(=O)(=O)c1cccc(C(F)(F)F)c1 [N-{1-[3-(2-fluoro-phenylamino)-propionyl]-piperidin-4-yl}-N-isopropyl-3-trifluoromethyl-benzenesulfonamide] |
